Source: US20180140572A1, “COMPOSITIONS COMPRISING A CANCER STEMNESS INHIBITOR AND AN IMMUNOTHERAPEUTIC AGENT FOR USE IN TREATING CANCER” (Boston Biomedical, Inc., priority 2015, published 2018)

Columns and labels:
FaDu sphere cultures = assay: qPCR cancer stem cell array in FaDu sphere cultures; assay type: cell-based; set-up: % Change ATM / % Change MERTK / % Change NOTCH2 / % Change LATS1 / % Change ITGA2 / % Change SMO / % Change TGFBR1 / % Change MAML1 / % Change WWC1 / % Change ITGA6 / % Change ITGB1 / % Change AXL / % Change KITLG / % Change JAK2 / % Change YAP1 / % Change BMI1 / % Change NOTCH1 / % Change ATXN1 / % Change ERBB2 / % Change SIRT1 / % Change WEE1 / % Change FGFR2 / % Change DDR1 / % Change GSK3B / % Change ENG / % Change DACH1 / % Change ALCAM / % Change HDAC1 / % Change CD44 / % Change HPRT1 / % Change IKBKB / % Change DNMT1 / % Change ETFA / % Change FOXP1 / % Change FLOT2 / % Change CHEK1 / % Change MUC1 / % Change CD24 / % Change NFKB1 / % Change NANOG / % Change ACTB / % Change EPCAM / % Change STAT3 / % Change TWIST2 / % Change PLAUR / % Change EGF / % Change ALDH1A1 / % Change RPLP0 / % Change TAZ / % Change JAG1 / % Change KLF17 / % Change ID1 / % Change ITGA4 / % Change IL8 / % Change MYC / % Change CD34 / % Change LIN28A / % Change POU5F1 / % Change PECAM1: dose or concentration left out as unconfirmed; settings: 6 hours, normalized to GAPDH
Experimental: The changes in gene expression following treatment with BBI608 were analyzed. FaDu sphere cultures were treated for 6 hours with DMSO (control) or BBI608 at […]. Total RNA was isolated, reversed transcribed and the generated cDNA was analyzed using a qPCR cancer stem cell array. Data was normalized to the expression of the house keeping gene, GAPDH.

IL-6 = IL-6 protein production by HeLa cells; assay type: cell-based; settings: different concentrations
[1] = tested on: IL-6 and other STAT3 target genes; assay: STAT3 target gene expression in HeLa cells; assay type: cell-based
PD-L1 = assay: IFNγ-induced PD-L1 expression in CT26 cells (Western blotting); assay type: cell-based, mouse; settings: 100 ng/ml IFNγ, 24 hours, 1 μM BBI608
Experimental: 3×10^5 CT26 cells in 6-well plated were treated with 100 ng/ml IFNγ for 24 hours at the presence of control DMSO or 1 μM BBI608. Cells were washed twice with ice-cold PBS and lysed in lysis buffer [50 mM Hepes (pH 7.5), 1% Nonidet P-40, 150 mM NaCl, 1 mM EDTA, and 1× protease and phosphatase inhibitor mixture (EMD Millipore)]. Soluble protein (20 μg) was separated by SDS/PAGE and transferred to nitrocellulose membranes. Primary antibodies against P-STAT3 (Y705), PD-L1, and ACTIN (Sigma) were used in this study. The antigen-antibody complexes were visualized by enhanced chemiluminescence (BioRad).

IDO1 = IDO1 protein levels in SKOV3 cells; assay type: cell-based

CC(=O)c1cc2c(o1)C(=O)c1ccccc1C2=O [BBI608, 2-acetylnaphtho[2,3-b]furan-4,9-dione]
% Change ACTB (FaDu sphere cultures; gene ACTB): −24.49%
% Change ALCAM (FaDu sphere cultures; gene ALCAM): −36.13%
% Change ALDH1A1 (FaDu sphere cultures; gene ALDH1A1): −18.18%
% Change ATM (FaDu sphere cultures; gene ATM): −68.65%
% Change ATXN1 (FaDu sphere cultures; gene ATXN1): −45.26%
% Change AXL (FaDu sphere cultures; gene AXL): −48.50%
% Change B2M (FaDu sphere cultures; gene B2M): −27.69%
% Change BMI1 (FaDu sphere cultures; gene BMI1): −47.40%
% Change CD24 (FaDu sphere cultures; gene CD24): −26.46%
% Change CD34 (FaDu sphere cultures; gene CD34): −88.18%
% Change CD44 (FaDu sphere cultures; gene CD44): −35.44%
% Change CHEK1 (FaDu sphere cultures; gene CHEK1): −28.88%
% Change DACH1 (FaDu sphere cultures; gene DACH1): −36.55%
% Change DDR1 (FaDu sphere cultures; gene DDR1): −38.59%
% Change DNMT1 (FaDu sphere cultures; gene DNMT1): −32.09%
% Change EGF (FaDu sphere cultures; gene EGF): −19.07%
% Change ENG (FaDu sphere cultures; gene ENG): −37.62%
% Change EPCAM (FaDu sphere cultures; gene EPCAM): −22.87%
% Change ERBB2 (FaDu sphere cultures; gene ERBB2): −43.81%
% Change ETFA (FaDu sphere cultures; gene ETFA): −31.12%
% Change FGFR2 (FaDu sphere cultures; gene FGFR2): −41.18%
% Change FLOT2 (FaDu sphere cultures; gene FLOT2): −29.19%
% Change FOXP1 (FaDu sphere cultures; gene FOXP1): −29.76%
% Change GSK3B (FaDu sphere cultures; gene GSK3B): −38.06%
% Change HDAC1 (FaDu sphere cultures; gene HDAC1): −36.10%
% Change HPRT1 (FaDu sphere cultures; gene HPRT1): −33.81%
% Change ID1 (FaDu sphere cultures; gene ID1): −12.68%
% Change IKBKB (FaDu sphere cultures; gene IKBKB): −32.11%
% Change IL8 (FaDu sphere cultures; gene IL8): −7.62%
% Change ITGA2 (FaDu sphere cultures; gene ITGA2): −60.71%
% Change ITGA4 (FaDu sphere cultures; gene ITGA4): −11.52%
% Change ITGA6 (FaDu sphere cultures; gene ITGA6): −54.63%
% Change ITGB1 (FaDu sphere cultures; gene ITGB1): −50.45%
% Change JAG1 (FaDu sphere cultures; gene JAG1): −14.24%
% Change JAK2 (FaDu sphere cultures; gene JAK2): −47.94%
% Change KITLG (FaDu sphere cultures; gene KITLG): −47.99%
% Change KLF17 (FaDu sphere cultures; gene KLF17): −90.18%
% Change LATS1 (FaDu sphere cultures; gene LATS1): −60.75%
% Change LIN28A (FaDu sphere cultures; gene LIN28A): −87.52%
% Change MAML1 (FaDu sphere cultures; gene MAML1): −52.82%
% Change MERTK (FaDu sphere cultures; gene MERTK): −65.78%
% Change MUC1 (FaDu sphere cultures; gene MUC1): −27.42%
% Change MYC (FaDu sphere cultures; gene MYC): −3.91%
% Change NANOG (FaDu sphere cultures; gene NANOG): −93.34%
% Change NFKB1 (FaDu sphere cultures; gene NFKB1): −25.54%
% Change NOTCH1 (FaDu sphere cultures; gene NOTCH1): −46.24%
% Change NOTCH2 (FaDu sphere cultures; gene NOTCH2): −64.37%
% Change PECAM1 (FaDu sphere cultures; gene PECAM1): −70.26%
% Change PLAUR (FaDu sphere cultures; gene PLAUR): −20.64%
% Change POU5F1 (FaDu sphere cultures; gene POU5F1): −77.31%
% Change RPLP0 (FaDu sphere cultures; gene RPLP0): −17.48%
% Change SIRT1 (FaDu sphere cultures; gene SIRT1): −43.35%
% Change SMO (FaDu sphere cultures; gene SMO): −55.56%
% Change STAT3 (FaDu sphere cultures; gene STAT3): −22.87%
% Change TAZ (FaDu sphere cultures; gene TAZ): −15.09%
% Change TGFBR1 (FaDu sphere cultures; gene TGFBR1): −53.34%
% Change TWIST2 (FaDu sphere cultures; gene TWIST2): −21.59%
% Change WEE1 (FaDu sphere cultures; gene WEE1): −42.86%
% Change WWC1 (FaDu sphere cultures; gene WWC1): −51.64%
% Change YAP1 (FaDu sphere cultures; gene YAP1): −47.45%
IL-6 protein production (IL-6): downregulated
IL-6 and other STAT3 target genes expression [1]: downregulated
IFNγ-induced PD-L1 expression (PD-L1): reduced
IDO1 protein levels (IDO1; 8 or 24 hours): reduced
IDO1 protein levels (IDO1; 3 hours): reduced
